# Measured values taken from BindingDB's records for doi:10.1021/jm00020a029 (Merck Research Laboratories, 1995).
# Where a SMILES comes first, the peptide text is derived from it. [ ]: non-standard residue; d: D form. Phe(3,4-Cl2) = N[C@@H](Cc1ccc(Cl)c(Cl)c1)C(=O)O; Phe(F5) = N[C@@H](Cc1c(F)c(F)c(F)c(F)c1F)C(=O)O; Phe(4-CH2NH2) = NCc1ccc(C[C@H](N)C(=O)O)cc1; Phe(4-Cl) = N[C@@H](Cc1ccc(Cl)cc1)C(=O)O; Phe(4-NH2) = Nc1ccc(C[C@H](N)C(=O)O)cc1; Phe(4-F) = N[C@@H](Cc1ccc(F)cc1)C(=O)O; 2Nal = N[C@@H](Cc1ccc2ccccc2c1)C(=O)O; hPhe = N[C@@H](CCc1ccccc1)C(=O)O; Cha = N[C@@H](CC1CCCCC1)C(=O)O; NMeL = CN[C@@H](CC(C)C)C(=O)O; Phg = N[C@H](C(=O)O)c1ccccc1
# Assay: Evaluated for the activation of human thrombin receptor measured by platelet aggregation
row,EC50 [µM],SMILES
1,> 800,CC(C)C[C@H](NC(=O)[C@H](C)NC(=O)[C@@H](N)CO)C(=O)N[C@@H](CC(C)C)C(=O)N[C@@H](CCCNC(=N)N)C(N)=O [(S)-2-[(S)-2-((S)-2-Amino-3-hydroxy-propionylamino)-propionylamino]-4-methyl-pentanoic acid [(S)-1-((S)-1-carbamoyl-4-guanidino-butylcarbamoyl)-3-methyl-butyl]-amide] (H-SALLR-NH2)
2,> 800,CC(C)C[C@H](NC(=O)[C@H](CC(C)C)NC(=O)[C@@H](NC(=O)[C@H](C)N)c1ccccc1)C(=O)N[C@@H](CCCNC(=N)N)C(N)=O [(S)-2-[(S)-2-((S)-2-Amino-propionylamino)-2-phenyl-acetylamino]-4-methyl-pentanoic acid [(S)-1-((S)-1-carbamoyl-4-guanidino-butylcarbamoyl)-3-methyl-butyl]-amide] (H-A[Phg]LLR-NH2)
3,0.7,CC(C)C[C@H](NC(=O)[C@H](CC(C)C)NC(=O)[C@H](Cc1ccc(Cl)cc1)NC(=O)[C@H](C)N)C(=O)N[C@@H](CCCNC(=N)N)C(N)=O [(S)-2-[(S)-2-((S)-2-Amino-propionylamino)-3-(4-chloro-phenyl)-propionylamino]-4-methyl-pentanoic acid [(S)-1-((S)-1-carbamoyl-4-guanidino-butylcarbamoyl)-3-methyl-butyl]-amide] (H-A[Phe(4-Cl)]LLR-NH2)
4,40,CC(C)C[C@H](NC(=O)[C@H](Cc1ccc(F)cc1)NC(=O)[C@H](C)N)C(=O)N[C@@H](CCCNC(=N)N)C(=O)N[C@@H](CCCNC(=N)N)C(N)=O [(S)-2-[(S)-2-((S)-2-Amino-propionylamino)-3-(4-fluoro-phenyl)-propionylamino]-4-methyl-pentanoic acid [(S)-1-((S)-1-carbamoyl-4-guanidino-butylcarbamoyl)-4-guanidino-butyl]-amide] (H-A[Phe(4-F)]LRR-NH2)
5,19,CC(C)C[C@H](NC(=O)[C@H](CC(C)C)NC(=O)[C@H](Cc1ccc2ccccc2c1)NC(=O)[C@H](C)N)C(=O)N[C@@H](CCCNC(=N)N)C(N)=O [(S)-2-[(S)-2-((S)-2-Amino-propionylamino)-3-naphthalen-2-yl-propionylamino]-4-methyl-pentanoic acid [(S)-1-((S)-1-carbamoyl-4-guanidino-butylcarbamoyl)-3-methyl-butyl]-amide] (H-A[2Nal]LLR-NH2)
6,600,CC(C)C[C@H](NC(=O)[C@H](CC(C)C)NC(=O)[C@H](Cc1c(F)c(F)c(F)c(F)c1F)NC(=O)[C@H](C)N)C(=O)N[C@@H](CCCNC(=N)N)C(N)=O [(S)-2-[(S)-2-((S)-2-Amino-propionylamino)-3-pentafluorophenyl-propionylamino]-4-methyl-pentanoic acid [(S)-1-((S)-1-carbamoyl-4-guanidino-butylcarbamoyl)-3-methyl-butyl]-amide] (H-A[Phe(F5)]LLR-NH2)
7,0.4,CC(C)C[C@H](NC(=O)[C@H](Cc1ccccc1)NC(=O)[C@H](C)N)C(=O)N[C@@H](CC1CCCCC1)C(=O)N[C@@H](CCCNC(=N)N)C(N)=O [(S)-2-[(S)-2-((S)-2-Amino-propionylamino)-3-phenyl-propionylamino]-4-methyl-pentanoic acid [(S)-1-((S)-1-carbamoyl-4-guanidino-butylcarbamoyl)-2-cyclohexyl-ethyl]-amide] (H-AFL[Cha]R-NH2)
8,> 800,CC(C)C[C@H](NC(=O)[C@H](CC(C)C)NC(=O)[C@H](CCc1ccccc1)NC(=O)[C@H](C)N)C(=O)N[C@@H](CCCNC(=N)N)C(N)=O [(S)-2-[(S)-2-((S)-2-Amino-propionylamino)-4-phenyl-butyrylamino]-4-methyl-pentanoic acid [(S)-1-((S)-1-carbamoyl-4-guanidino-butylcarbamoyl)-3-methyl-butyl]-amide] (H-A[hPhe]LLR-NH2)
9,800,CC(C)C[C@H](NC(=O)[C@H](CC(C)C)NC(=O)[C@H](Cc1ccc(CN)cc1)NC(=O)[C@H](C)N)C(=O)N[C@@H](CCCNC(=N)N)C(N)=O [(S)-2-[(S)-3-(4-Aminomethyl-phenyl)-2-((S)-2-amino-propionylamino)-propionylamino]-4-methyl-pentanoic acid [(S)-1-((S)-1-carbamoyl-4-guanidino-butylcarbamoyl)-3-methyl-butyl]-amide] (H-A[Phe(4-CH2NH2)]LLR-NH2)
10,185,CC(C)C[C@H](NC(=O)[C@H](CC(C)C)NC(=O)[C@H](Cc1ccccc1)NC(=O)[C@@H](N)CO)C(N)=O [(S)-2-{(S)-2-[(S)-2-((S)-2-Amino-3-hydroxy-propionylamino)-3-phenyl-propionylamino]-4-methyl-pentanoylamino}-4-methyl-pentanoic acid amide] (H-SFLL-NH2)
11,0.13,CC(C)C[C@H](NC(=O)[C@H](CCCNC(=N)N)NC(=O)[C@H](Cc1ccc(F)cc1)NC(=O)[C@H](C)N)C(=O)N[C@@H](CCCNC(=N)N)C(N)=O [(S)-2-{(S)-2-[(S)-2-((S)-2-Amino-propionylamino)-3-(4-fluoro-phenyl)-propionylamino]-5-guanidino-pentanoylamino}-4-methyl-pentanoic acid ((S)-1-carbamoyl-4-guanidino-butyl)-amide] (H-A[Phe(4-F)]RLR-NH2)

# Continued, compound first:
row,SMILES,EC50 [µM]
1,"CC(C)C[C@H](NC(=O)[C@H](CC(C)C)NC(=O)[C@H](Cc1ccc(Cl)c(Cl)c1)NC(=O)[C@H](C)N)C(=O)N[C@@H](CCCNC(=N)N)C(N)=O [(S)-2-[(S)-2-((S)-2-Amino-propionylamino)-3-(3,4-dichloro-phenyl)-propionylamino]-4-methyl-pentanoic acid [(S)-1-((S)-1-carbamoyl-4-guanidino-butylcarbamoyl)-3-methyl-butyl]-amide] (H-A[Phe(3,4-Cl2)]LLR-NH2)",0.5
2,CC(C)C[C@H](NC(=O)[C@H](Cc1ccc(F)cc1)NC(=O)[C@H](C)N)C(=O)N[C@@H](CC1CCCCC1)C(=O)N[C@@H](CCCNC(=N)N)C(N)=O [(S)-2-[(S)-2-((S)-2-Amino-propionylamino)-3-(4-fluoro-phenyl)-propionylamino]-4-methyl-pentanoic acid [(S)-1-((S)-1-carbamoyl-4-guanidino-butylcarbamoyl)-2-cyclohexyl-ethyl]-amide] (H-A[Phe(4-F)]L[Cha]R-NH2),0.14
3,CC(C)C[C@H](NC(=O)[C@H](CC(C)C)NC(=O)[C@H](Cc1ccc(F)cc1)NC(=O)[C@H](C)N)C(=O)N[C@@H](CCCNC(=N)N)C(N)=O [(S)-2-[(S)-2-((S)-2-Amino-propionylamino)-3-(4-fluoro-phenyl)-propionylamino]-4-methyl-pentanoic acid [(S)-1-((S)-1-carbamoyl-4-guanidino-butylcarbamoyl)-3-methyl-butyl]-amide] (H-A[Phe(4-F)]LLR-NH2),0.2
4,COc1ccc(C[C@H](NC(=O)[C@H](C)N)C(=O)N[C@@H](CC(C)C)C(=O)N[C@@H](CC(C)C)C(=O)N[C@@H](CCCNC(=N)N)C(N)=O)cc1 [(S)-2-[(S)-2-((S)-2-Amino-propionylamino)-3-(4-methoxy-phenyl)-propionylamino]-4-methyl-pentanoic acid [(S)-1-((S)-1-carbamoyl-4-guanidino-butylcarbamoyl)-3-methyl-butyl]-amide] (H-AY(Me)LLR-NH2),21.4
5,CC(C)C[C@H](NC(=O)[C@H](CC(C)C)NC(=O)[C@H](CC1CCCCC1)NC(=O)[C@H](C)N)C(=O)N[C@@H](CCCNC(=N)N)C(N)=O [(S)-2-[(S)-2-((S)-2-Amino-propionylamino)-3-cyclohexyl-propionylamino]-4-methyl-pentanoic acid [(S)-1-((S)-1-carbamoyl-4-guanidino-butylcarbamoyl)-3-methyl-butyl]-amide] (H-A[Cha]LLR-NH2),28
6,CC(C)C[C@H](NC(=O)[C@H](CC(C)C)NC(=O)[C@H](Cc1ccccc1)NC(=O)[C@H](C)N)C(=O)N[C@@H](CCCNC(=N)N)C(N)=O [(S)-2-[(S)-2-((S)-2-Amino-propionylamino)-3-phenyl-propionylamino]-4-methyl-pentanoic acid [(S)-1-((S)-1-carbamoyl-4-guanidino-butylcarbamoyl)-3-methyl-butyl]-amide] (H-AFLLR-NH2),0.8
7,CC(C)C[C@H](NC(=O)[C@H](Cc1ccccc1)NC(=O)[C@H](C)N)C(=O)N(C)[C@@H](CC(C)C)C(=O)N[C@@H](CCCNC(=N)N)C(N)=O [(S)-2-[(S)-2-((S)-2-Amino-propionylamino)-3-phenyl-propionylamino]-4-methyl-pentanoic acid [(S)-1-((S)-1-carbamoyl-4-guanidino-butylcarbamoyl)-3-methyl-butyl]-methyl-amide] (H-AFL[NMeL]R-NH2),260
8,CC(C)C[C@H](NC(=O)[C@H](CC(C)C)NC(=O)[C@H](Cc1ccccc1)NC(=O)[C@@H](N)CO)C(=O)N[C@@H](CCCNC(=N)N)C(=O)N[C@@H](CC(N)=O)C(N)=O [(S)-2-[(S)-2-((S)-2-{(S)-2-[(S)-2-((S)-2-Amino-3-hydroxy-propionylamino)-3-phenyl-propionylamino]-4-methyl-pentanoylamino}-4-methyl-pentanoylamino)-5-guanidino-pentanoylamino]-succinamide],0.2
9,CC(C)C[C@H](NC(=O)[C@H](CC(C)C)NC(=O)[C@H](Cc1ccc(N)cc1)NC(=O)[C@H](C)N)C(=O)N[C@@H](CCCNC(=N)N)C(N)=O [(S)-2-[(S)-3-(4-Amino-phenyl)-2-((S)-2-amino-propionylamino)-propionylamino]-4-methyl-pentanoic acid [(S)-1-((S)-1-carbamoyl-4-guanidino-butylcarbamoyl)-3-methyl-butyl]-amide] (H-A[Phe(4-NH2)]LLR-NH2),235
10,CC(C)C[C@H](NC(=O)[C@H](CC(C)C)NC(=O)[C@H](Cc1ccccc1)N(C)C(=O)[C@@H](N)CO)C(=O)N[C@@H](CCCNC(=N)N)C(N)=O [(S)-2-{(S)-2-[((S)-2-Amino-3-hydroxy-propionyl)-methyl-amino]-3-phenyl-propionylamino}-4-methyl-pentanoic acid [(S)-1-((S)-1-carbamoyl-4-guanidino-butylcarbamoyl)-3-methyl-butyl]-amide],> 800
11,CC(C)C[C@H](NC(=O)[C@H](C)NC(=O)[C@H](Cc1ccccc1)NC(=O)[C@@H](N)CO)C(=O)N[C@@H](CCCNC(=N)N)C(N)=O [(S)-2-{(S)-2-[(S)-2-((S)-2-Amino-3-hydroxy-propionylamino)-3-phenyl-propionylamino]-propionylamino}-4-methyl-pentanoic acid ((S)-1-carbamoyl-4-guanidino-butyl)-amide] (H-SFALR-NH2),1.3
